Measured values: patent US8513233B2, “Pyrimidinyl-propionic acid derivatives and their use as PPAR agonists” (Shanghai Institute of Materia Medica, CAS, priority 2007, dated 2013)

Tests used:
Format in all cases: cell-based
[1] = system: HepG2; assay: Growth inhibition, modified MTT assay, HepG2; settings: Homo sapiens, mean of 3 independent tests
Procedure: (§1) The growth inhibition was evaluated by the modified MTT assay. Briefly, the cells were seeded at 1×10^4 cells/well in 96-well plates (Falcon, Calif., USA), and incubated for 24 h in […] culture media with 10% FCS. The media were then replaced by serum-free medium. After 24 h, the media were placed in triplicate with grade concentrations of compounds. As controls, the cells were cultivated in DMEM/F12 only. The cells were then treated by MTT (Sigma, USA) assay, […] (5 g/L) for 4 h. After the removal of the supernatant, the purple-blue sediment was dissolved in 100 μL/well DMSO, and the optical densities were read on the multi-well scanning spectrophotometer (Labsystems Dragon, Finland) at 492 nm (A492). The growth inhibition rate (GIR) of the treated cells was calculated using Equation: GIR(%)={1−[A490/A490(control)]}×100% The results were also converted to IC50 (the compound concentration required for 50% growth inhibition of tumor cells), which were calculated by using the sigmoidal fitting model by the Origin 7.0 software (OriginLab, Northampton, Mass., USA). The mean IC50 was determined from the results of 3 independent tests.

[2] = target: T1, PPAR-γ (Homo sapiens, UniProt P37231); assay: Transient transfection and transcription assay (luciferase reporter, U2OS cells); settings: 24 h treatment
T1 construct: expressed in transfected cells; host or cells: U2OS cells, transiently transfected with pcDNA3.1 expression vectors (FuGene6)
T1 sequence (P37231 1-505): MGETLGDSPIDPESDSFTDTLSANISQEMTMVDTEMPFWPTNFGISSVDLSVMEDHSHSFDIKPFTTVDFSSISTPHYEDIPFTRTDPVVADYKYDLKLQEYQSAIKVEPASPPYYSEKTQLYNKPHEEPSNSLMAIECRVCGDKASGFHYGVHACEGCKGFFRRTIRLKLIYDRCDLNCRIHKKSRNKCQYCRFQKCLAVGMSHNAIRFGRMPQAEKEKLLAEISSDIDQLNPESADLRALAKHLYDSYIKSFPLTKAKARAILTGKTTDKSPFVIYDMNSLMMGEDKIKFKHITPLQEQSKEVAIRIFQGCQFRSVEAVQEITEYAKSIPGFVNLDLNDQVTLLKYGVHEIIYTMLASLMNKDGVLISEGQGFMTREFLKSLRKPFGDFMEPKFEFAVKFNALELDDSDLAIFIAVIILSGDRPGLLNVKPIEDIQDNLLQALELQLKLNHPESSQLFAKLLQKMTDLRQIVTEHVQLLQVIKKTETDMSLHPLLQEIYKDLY
T1 sequence (P19793 1-462 partner): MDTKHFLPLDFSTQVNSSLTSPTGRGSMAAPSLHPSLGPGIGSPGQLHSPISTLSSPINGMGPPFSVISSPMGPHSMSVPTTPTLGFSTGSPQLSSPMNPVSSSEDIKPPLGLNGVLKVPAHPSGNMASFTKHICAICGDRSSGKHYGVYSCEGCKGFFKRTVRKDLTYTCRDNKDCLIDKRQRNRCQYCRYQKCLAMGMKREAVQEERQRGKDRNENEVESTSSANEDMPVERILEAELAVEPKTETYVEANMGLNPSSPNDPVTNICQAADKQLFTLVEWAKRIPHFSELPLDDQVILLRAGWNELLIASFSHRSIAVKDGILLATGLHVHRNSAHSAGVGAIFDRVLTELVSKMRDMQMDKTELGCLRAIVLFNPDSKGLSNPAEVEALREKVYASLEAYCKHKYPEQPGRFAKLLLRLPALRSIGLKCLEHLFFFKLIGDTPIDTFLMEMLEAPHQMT
Procedure: cDNAs for Human RXR, PPAR were obtained by RTPCR from the human liver or adipose tissues. Amplified cDNAs were cloned into pcDNA3.1 expression vector and the inserts were confirmed by sequencing. U2OS cells were cultured in McCoy's 5A with 10% heat-inactivated fetal bovine serum in a humidified 5% CO2 atmosphere at 37° C. Cells were seeded in 96-well plates the day before transfection to give a confluence of 50-80% at transfection. A total of 60 ng of DNA containing 10 ng of hRXR, 10 ng of pCMV Gal, 10 ng of nuclear receptor expression vectors and 30 ng of the corresponding reporters were cotransfected per well using FuGene6 transfection reagent according to the manufacturer's instructions. […] The final concentration of DMSO in culture medium was 0.1%. […] Luciferase activity was monitored using the luciferase assay kit according to the manufacturers instructions. Light emission was read in a Labsystems Ascent Fluoroskan reader. To measure galactosidase activity to normalize the luciferase data, 50 IL of supernatant from each transfection lysate was transferred to a new microplate. Galactosidase assays were performed in the microwell plates using a kit from Promega and read in a microplate reader. Compounds were tested in five concentrations ranging from 0.01 to 10 μM. […] The results were expressed as means (SD).

[3] = system: SPC-A1; assay: Growth inhibition, modified MTT assay, SPC-A1; settings: SPCA1, mean of 3 independent tests
Procedure: as §1

[4] = system: T24; assay: Growth inhibition, modified MTT assay, T24; settings: Homo sapiens, T-24, mean of 3 independent tests
Procedure: as §1

[5] = system: MCF-7; assay: Growth inhibition, modified MTT assay, MCF-7; settings: Homo sapiens, MCF7; MCF-7, MTT, mean of 3 independent tests
Procedure: as §1

Structure (SMILES) | IC50 [1] [µM] | EC50 [2] [µM] | IC50 [4] [µM] | IC50 [5] [µM] | IC50 [3] [µM]
COc1ccc(OC(C)(Cc2ccc(Oc3cc(N4CCN(Cc5ccccc5)CC4)nc(N)n3)cc2)C(=O)O)cc1 (stereo not drawn) [Compound 30, 3-{4-[2-Amino-6-(4-benzyl-piperazin-1-yl)-pyrimidin-4-yloxy]-phenyl}-2-(4-methoxy-phenoxy)-2-methyl-propionic acid] | > 50 | 5.75 | > 50 | 42.8 | 38.9
COc1ccccc1C(=O)N1CCN(c2cc(Oc3ccc(CC(C)(Oc4ccccc4)C(=O)O)cc3)nc(N)n2)CC1 (stereo not drawn) [Compound 25, 3-{4-{2-Amino-6-[4-(2-methoxy-benzoyl)-piperazin-1-yl]-pyrimidin-4-yloxy}-phenyl}-2-methyl-2-phenoxy-propionic acid] | > 50 | – | > 50 | > 50 | > 50
CC(Cc1ccc(Oc2cc(N3CCN(c4ncccn4)CC3)nc(N)n2)cc1)(Oc1ccccc1)C(=O)O (stereo not drawn) [Compound 20, 3-{4-[2-Amino-6-(4-pyrimidin-2-yl-piperazin-1-yl)-pyrimidin-4-yloxy]-phenyl}-2-methyl-2-phenoxy-propionic acid] | 32.6 | 5.89 | 20.1 | 35.7 | 29.1
CC(Cc1ccc(Oc2cc(N3CCN(CC4CCCCC4)CC3)nc(N)n2)cc1)(Oc1ccccc1)C(=O)O (stereo not drawn) [Compound 27, 3-{4-[2-Amino-6-(4-cyclohexylmethyl-piperazin-1-yl)-pyrimidin-4-yloxy]-phenyl}-2-methyl-2-phenoxy-propionic acid] | 44.5 | 5.37 | > 50 | > 50 | > 50
CCCc1ccc(C(=O)N2CCN(c3cc(Oc4ccc(CC(C)(Oc5ccccc5)C(=O)O)cc4)nc(N)n3)CC2)cc1 (stereo not drawn) [Compound 24, 3-{4-{2-Amino-6-[4-(4-propyl-benzoyl)-piperazin-1-yl]-pyrimidin-4-yloxy}-phenyl}-2-methyl-2-phenoxy-propionic acid] | > 50 | – | 39.4 | 38.2 | 43.7
CC(Cc1ccc(Oc2cc(N3CCN(Cc4ccc(C(C)(C)C)cc4)CC3)nc(N)n2)cc1)(Oc1ccccc1)C(=O)O (stereo not drawn) [Compound 14, 3-{4-{2-Amino-6-[4-(4-tert-butyl-benzyl)-piperazin-1-yl]-pyrimidin-4-yloxy}-phenyl}-2-methyl-2-phenoxy-propionic acid] | 26.5 | 6.03 | 12.5 | 7.9 | 8.6
CC(Cc1ccc(Oc2cc(N3CCN(Cc4cccc5ccccc45)CC3)nc(N)n2)cc1)(Oc1ccccc1)C(=O)O (stereo not drawn) [Compound 6, 3-{4-[2-Amino-6-(4-(naphthalen-1-ylmethyl)-piperazin-1-yl)-pyrimidin-4-yloxy]-phenyl}-2-methyl-2-phenoxy-propionic acid] | 24.8 | 3.39 | 36.3 | 42.2 | 49.8
CC(Cc1ccc(Oc2cc(N3CCN(Cc4ccccn4)CC3)nc(N)n2)cc1)(Oc1ccccc1)C(=O)O (stereo not drawn) [Compound 36, 3-{4-[2-Amino-6-(4-pyridin-2-ylmethyl-piperazin-1-yl)-pyrimidin-4-yloxy]-phenyl}-2-methyl-2-phenoxy-propionic acid] | > 50 | – | > 50 | > 50 | > 50
CC(Cc1ccc(Oc2cc(N3CCN(c4ccccc4)CC3)nc(N)n2)cc1)(Oc1ccccc1)C(=O)O (stereo not drawn) [Compound 22, 3-{4-[2-Amino-6-(4-phenyl-piperazin-1-yl)-pyrimidin-4-yloxy]-phenyl}-2-methyl-2-phenoxy-propionic acid] | 29.7 | 4.68 | 22.6 | – | 32.5
CC(Cc1ccc(Oc2cc(N3CCN(C(=O)c4ccccc4)CC3)nc(N)n2)cc1)(Oc1ccccc1)C(=O)O (stereo not drawn) [Compound 21, 3-{4-[2-Amino-6-(4-benzoyl-piperazin-1-yl)-pyrimidin-4-yloxy]-phenyl}-2-methyl-2-phenoxy-propionic acid] | > 50 | – | > 50 | > 50 | > 50

The next lines start with results.

IC50 [1] [µM] | EC50 [2] [µM] | IC50 [4] [µM] | IC50 [5] [µM] | Structure (SMILES) | IC50 [3] [µM]
– | 3.31 | – | – | C[C@@](Cc1ccc(Oc2cc(N3CCN(Cc4ccccc4)CC3)nc(N)n2)cc1)(Oc1ccccc1)C(=O)O [Compound 3, S-3-{4-[2-Amino-6-(4-benzyl-piperazin-1-yl)-pyrimidin-4-yloxy]-phenyl}-2-methyl-2-phenoxy-propionic acid] | –
> 50 | 4.17 | > 50 | 38 | Cc1cccc(CN2CCN(c3cc(Oc4ccc(CC(C)(Oc5ccccc5)C(=O)O)cc4)nc(N)n3)CC2)c1 (stereo not drawn) [Compound 9, 3-{4-{2-Amino-6-[4-(3-methyl-benzyl)-piperazin-1-yl]-pyrimidin-4-yloxy}-phenyl}-2-methyl-2-phenoxy-propionic acid] | 48.9
38.1 | 4.27 | 29.1 | 15.1 | CC(Cc1ccc(Oc2cc(N3CCN(Cc4cccc(C(F)(F)F)c4)CC3)nc(N)n2)cc1)(Oc1ccccc1)C(=O)O (stereo not drawn) [Compound 10, 3-{4-{2-Amino-6-[4-(3-trifluoromethyl-benzyl)-piperazin-1-yl]-pyrimidin-4-yloxy}-phenyl}-2-methyl-2-phenoxy-propionic acid] | 25.1
45.5 | 3.8 | 40.8 | 29.3 | Cc1ccc(OC(C)(Cc2ccc(Oc3cc(N4CCN(Cc5ccccc5)CC4)nc(N)n3)cc2)C(=O)O)cc1 (stereo not drawn) [Compound 31, 3-{4-[2-Amino-6-(4-benzyl-piperazin-1-yl)-pyrimidin-4-yloxy]-phenyl}-2-methyl-2-p-tolyloxy-propionic acid] | 35.3
– | 5.75 | – | – | C[C@@](Cc1ccc(Oc2cc(N3CCN(Cc4ccccc4)CC3)nc(N)n2)cc1)(Oc1ccccc1)C(=O)O (stereo in doubt) [Compound 4, R-3-{4-[2-Amino-6-(4-benzyl-piperazin-1-yl)-pyrimidin-4-yloxy]-phenyl}-2-methyl-2-phenoxy-propionic acid] | –
35.6 | – | 38.8 | 23.3 | CC(Cc1ccc(Oc2cc(N3CCN(Cc4cccc(C#N)c4)CC3)nc(N)n2)cc1)(Oc1ccccc1)C(=O)O (stereo not drawn) [Compound 26, 3-{4-{2-Amino-6-[4-(3-cyano-benzyl)-piperazin-1-yl]-pyrimidin-4-yloxy}-phenyl}-2-methyl-2-phe noxy-propionic acid] | 37.7
